The text below walks through data of publication PMC7801736 (ACS infectious diseases, 2019).

≈ marks a conversion by molar mass, not a printed value. Where two headings read alike, the source gives them in different places.

In experiment [1] the test system is M. tuberculosis inhA overexpression strain mc^24914. The experiment is described as follows: microbe, parasite or virus in culture. The format is cell-based, Mycobacterium tuberculosis. The conditions noted are these: for MIC: Mycobacterium tuberculosis.
Experiment [2] deals with M. tuberculosis strain H37Rv. The format is cell-based, Mycobacterium tuberculosis. The conditions noted are these: H37Rv background.
In experiment [3] the test system is M. tuberculosis strain H37Rv. The conditions noted are these: cited from earlier work.
Where [4] appears, read: read-out: MIC (µM) mc^24914, Table 1, commercial material, […].
The mark [5] stands for this setting: read-out: MIC (µM) mc^24914, Table 2, synthetic material.

`COc1cccc(Nc2ccc([N+](=O)[O-])c3nonc23)c1` [JSF-2164, N-(3-methoxyphenyl)-7-nitrobenzo[c][1,2,5]oxadiazol-4-amine]: the MIC in experiment [1] (setting [4]) was found to be 30 µM (≈ 8.59 µg/mL); in experiment [1] (setting [5]) it was 25 µM (≈ 7.16 µg/mL). Besides, in experiment [1] (mc^24914 vs H37Rv), the “MIC shift versus the inhA overexpression strain as compared to H37Rv” value was 3 fold. The “mutation rate (spontaneous resistance)” value in experiment [2] is recorded as ~10^−5.
For `COc1cccc(Nc2ccc(N)c3nonc23)c1` [JSF-3616, N4-(3-methoxyphenyl)-benzo[c][1,2,5]oxadiazole-4,7-diamine], in experiment [1] (setting [5]), the MIC turned out to be 32 µM (≈ 8.2 µg/mL).
`COc1cccc(Nc2ccc3nonc3c2N)c1` [JSF-3617, N5-(3-methoxyphenyl)benzo[c][1,2,5]oxadiazole-4,5-diamine]: the MIC in experiment [1] (setting [5]) is 125 µM (≈ 32 µg/mL).
For `NNC(=O)c1ccncc1` [isoniazid, reference compound], the MIC in experiment [1] (setting [4]) and in experiment [1] (setting [5]) was 2.5 µM (≈ 0.343 µg/mL) throughout.
Consider `O=[N+]([O-])c1cn2c(n1)OC[C@@H](OCc1ccc(OC(F)(F)F)cc1)C2` [pretomanid], for which the frequency of resistance in experiment [3] is listed as 10^−5 to 10^−6.
With `Oc1cc(Cl)ccc1Oc1ccc(Cl)cc1Cl` [triclosan, reference compound], the MIC in experiment [1] (setting [4]) amounted to 120 µM (≈ 34.7 µg/mL).
